pIC50: −log10 of the molar value. Where a name gives a salt, the structure may show the parent alone.
Columns and labels:
DGKζ = target: T1, DGKζ (Homo sapiens, UniProt Q13574); assay: DGKζ biochemical assay (ADP-Glo); settings: read-out: DGK ζ IC50
T1 construct: purchased Carna 12-110

DGKα = DGKα (Homo sapiens, UniProt P23743); assay: DGKα biochemical assay (ADP-Glo); settings: read-out: DGK α IC50
Outline: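 ADP-Glo kinase assay using OAG/PS (1:2) lipid substrate, sonicated, in HEPES pH 7.0 buffer with MgCl2, CaCl2, DTT, BSA, Triton X-100. Enzyme preincubated with compound 30 min at RT; substrate with ATP (DGKα: 400 μM) added, 45 min RT. Luminescence read; % inhibition vs DMSO and no-enzyme controls.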

Chain of DGKα (P23743 whole entry): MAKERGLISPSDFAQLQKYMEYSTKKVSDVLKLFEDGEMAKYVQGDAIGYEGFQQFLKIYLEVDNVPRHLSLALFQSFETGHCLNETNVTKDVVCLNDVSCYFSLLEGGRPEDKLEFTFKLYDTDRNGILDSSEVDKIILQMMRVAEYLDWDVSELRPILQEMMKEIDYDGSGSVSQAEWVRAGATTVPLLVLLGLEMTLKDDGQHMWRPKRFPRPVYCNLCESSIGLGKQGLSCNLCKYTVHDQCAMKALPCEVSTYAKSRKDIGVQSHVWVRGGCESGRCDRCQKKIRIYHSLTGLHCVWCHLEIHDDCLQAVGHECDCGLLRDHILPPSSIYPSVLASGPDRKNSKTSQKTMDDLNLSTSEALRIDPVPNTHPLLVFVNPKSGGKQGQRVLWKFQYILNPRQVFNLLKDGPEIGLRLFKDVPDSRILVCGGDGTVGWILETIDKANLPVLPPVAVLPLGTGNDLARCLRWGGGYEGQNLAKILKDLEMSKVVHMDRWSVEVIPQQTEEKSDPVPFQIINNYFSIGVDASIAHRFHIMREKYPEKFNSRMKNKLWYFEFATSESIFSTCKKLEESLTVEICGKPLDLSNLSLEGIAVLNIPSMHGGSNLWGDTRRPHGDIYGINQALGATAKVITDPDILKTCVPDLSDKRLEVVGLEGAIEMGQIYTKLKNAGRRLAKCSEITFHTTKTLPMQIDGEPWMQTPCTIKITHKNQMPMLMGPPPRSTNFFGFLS
T1 sequence (Q13574 1-929 isoform Q13574-4): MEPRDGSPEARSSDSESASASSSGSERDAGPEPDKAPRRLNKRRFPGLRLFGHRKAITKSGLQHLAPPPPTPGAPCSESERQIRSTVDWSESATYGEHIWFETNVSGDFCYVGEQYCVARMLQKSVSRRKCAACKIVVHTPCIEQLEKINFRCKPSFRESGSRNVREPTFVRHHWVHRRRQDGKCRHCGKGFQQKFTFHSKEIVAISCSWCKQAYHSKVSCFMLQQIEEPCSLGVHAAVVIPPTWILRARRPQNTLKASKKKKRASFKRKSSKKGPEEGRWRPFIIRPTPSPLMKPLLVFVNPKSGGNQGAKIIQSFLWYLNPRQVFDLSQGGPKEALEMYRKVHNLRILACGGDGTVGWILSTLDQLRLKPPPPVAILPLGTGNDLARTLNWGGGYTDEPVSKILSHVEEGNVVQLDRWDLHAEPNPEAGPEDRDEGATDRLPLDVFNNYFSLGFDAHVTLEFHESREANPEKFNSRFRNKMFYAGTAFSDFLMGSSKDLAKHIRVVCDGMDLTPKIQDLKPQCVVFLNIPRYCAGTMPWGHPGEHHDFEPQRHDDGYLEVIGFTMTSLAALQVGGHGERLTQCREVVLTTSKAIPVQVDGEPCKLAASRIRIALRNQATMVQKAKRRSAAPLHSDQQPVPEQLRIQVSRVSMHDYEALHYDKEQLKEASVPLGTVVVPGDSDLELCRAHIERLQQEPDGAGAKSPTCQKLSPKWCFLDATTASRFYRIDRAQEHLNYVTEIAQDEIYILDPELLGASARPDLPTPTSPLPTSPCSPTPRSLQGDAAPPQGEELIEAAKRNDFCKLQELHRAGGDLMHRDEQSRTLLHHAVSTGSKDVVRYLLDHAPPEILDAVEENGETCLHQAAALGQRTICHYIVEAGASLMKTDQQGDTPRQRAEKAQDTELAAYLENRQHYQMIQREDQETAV

Row | pIC50 (DGKζ) | pIC50 (DGKα) | Compound
1 | 6.00 to 7.00 | 6.00 to 7.00 | Cn1c(=O)c(C#N)c(N(C)[C@H]2CC[C@H](N(CC3CCC3)c3ccc4c(c3)OCCO4)CC2)c2nc(C#N)ccc21 [Example 171, trans-8-((4-((cyclobutylmethyl)(2,3-dihydrobenzo[b] [1,4]dioxin-6-yl)amino)cyclohexyl)(methyl)amino)-5-methyl-6-oxo-5,6-dihydro-1,5-naphthyridine-2,7-dicarbonitrile]
2 | ≤ 6.00 | ≤ 6.00 | Cn1c(=O)c(C#N)c(N(C)[C@H]2CC[C@H](N(CC3CCC3)c3ccc(CCN4CCOCC4)cc3)CC2)c2nc(C#N)ccc21 [Example 172, trans-8-((4-((cyclobutylmethyl)(4-(2-morpholinoethyl)phenyl)amino)cyclohexyl)(methyl)amino)-5-methyl-6-oxo-5,6-dihydro-1,5-naphthyridine-2,7-dicarbonitrile]
3 | 6.00 to 7.00 | 6.00 to 7.00 | Cc1cc(F)ccc1N(CC1COCCO1)[C@H]1CC[C@H](N(C)c2c(C#N)c(=O)n(C)c3ccc(C#N)nc23)CC1 (stereo partly drawn) [Example 173, trans-8-((4-(((1,4-dioxan-2-yl)methyl)(4-fluoro-2-methylphenyl)amino)cyclohexyl)(methyl)amino)-5-methyl-6-oxo-5,6-dihydro-1,5-naphthyridine-2,7-dicarbonitrile]
4 | 6.00 to 7.00 | 6.00 to 7.00 | Cn1c(=O)c(C#N)c(N(C)[C@H]2CC[C@H](N(CC3CC3)c3ccc(F)c(CN4CCOCC4)c3)CC2)c2nc(C#N)ccc21 [Example 174, trans-8-((-4-((cyclopropylmethyl)(4-fluoro-3-(morpholinomethyl)phenyl)amino)cyclohexyl) (methyl)amino)-5-methyl-6-oxo-5,6-dihydro-1,5-naphthyridine-2,7-dicarbonitrile]
5 | 6.00 to 7.00 | 6.00 to 7.00 | Cn1c(=O)cc(N(C)[C@H]2CC[C@@H](N(CC3CCC3)c3ccc(F)c(CN4CCOCC4)c3)CC2)c2nc(C#N)ccc21 [Example 175, cis-8-((-4-((cyclobutylmethyl)(4-fluoro-3-(morpholinomethyl)phenyl)amino)cyclohexyl) (methyl)amino)-5-methyl-6-oxo-5,6-dihydro-1,5-naphthyridine-2-carbonitrile]
6 | ≤ 6.00 | ≤ 6.00 | CC(C)CN(c1ccnn1C)[C@H]1CC[C@H](N(C)c2c(C#N)c(=O)n(C)c3ccc(C#N)nc23)CC1 [Example 176, trans-8-((-4-(isobutyl(1-methyl-1H-pyrazol-5-yl)amino)cyclohexyl)(methyl)amino)-5-methyl-6-oxo-5,6-dihydro-1,5-naphthyridine-2,7-dicarbonitrile]
7 | > 8.00 | > 8.00 | Cn1c(=O)c(C#N)c(N(C)[C@H]2CC[C@@H](N(CC3COCCO3)c3ccc4c(c3)OCO4)CC2)c2nc(C#N)ccc21 (stereo partly drawn) [Example 177, cis-8-((4-(((1,4-dioxan-2-yl)methyl)(benzo[d][1,3]dioxol-5-yl)amino)cyclohexyl)(methyl)amino)-5-methyl-6-oxo-5,6-dihydro-1,5-naphthyridine-2,7-dicarbonitrile]
8 | 6.00 to 7.00 | 6.00 to 7.00 | Cc1cc(F)ccc1N(CC1CC(F)(F)C1)[C@H]1CC[C@H](N(C)c2c(C#N)c(=O)n(C)c3ccc(C#N)nc23)CC1 [Example 178, trans-8-((-4-(((3,3-difluorocyclobutyl)methyl)(4-fluoro-2-methylphenyl)amino)cyclohexyl)(methyl)amino)-5-methyl-6-oxo-5,6-dihydro-1,5-naphthyridine-2,7-dicarbonitrile]
9 | ≤ 6.00 | 7.00 to 8.00 | Cn1c(=O)c(C#N)c(N(C)[C@H]2CC[C@H](N(CC3CCC3)c3ccc(F)cc3C(F)F)CC2)c2nc(C#N)ccc21 [Example 179, trans-8-((-4-((cyclobutylmethyl)(2-(difluoromethyl)-4-fluorophenyl)amino)cyclohexyl)(methyl)amino)-5-methyl-6-oxo-5,6-dihydro-1,5-naphthyridine-2,7-dicarbonitrile]
10 | 6.00 to 7.00 | 6.00 to 7.00 | Cn1c(=O)c(C#N)c(N(C)[C@H]2CC[C@@H](N(CC3CCC3)c3ccc(F)cc3C(F)F)CC2)c2nc(C#N)ccc21 [Example 180, cis-8-((-4-((cyclobutylmethyl)(2-(difluoromethyl)-4-fluorophenyl)amino)cyclohexyl)(methyl)amino)-5-methyl-6-oxo-5,6-dihydro-1,5-naphthyridine-2,7-dicarbonitrile]
11 | 6.00 to 7.00 | 7.00 to 8.00 | Cn1c(=O)cc(N(C)[C@H]2CC[C@@H](N(CC3COCCO3)c3ccc4c(c3)OCO4)CC2)c2nc(C#N)ccc21 (stereo partly drawn) [Example 181, cis-8-((4-(((1,4-dioxan-2-yl)methyl)(benzo[d][1,3]dioxol-5-yl)amino)cyclohexyl)(methyl)amino)-5-methyl-6-oxo-5,6-dihydro-1,5-naphthyridine-2-carbonitrile]
12 | > 8.00 | ≤ 6.00 | Cn1c(=O)c(C#N)c(N(C)[C@H]2CC[C@@H](N(CC3COCCO3)c3ccc4c(c3)OCCO4)CC2)c2nc(C#N)ccc21 (stereo partly drawn) [Example 182, cis-8-((4-(((1,4-dioxan-2-yl)methyl)(2,3-dihydrobenzo[b][1,4]dioxin-6-yl)amino)cyclohexyl) (methyl)amino)-5-methyl-6-oxo-5,6-dihydro-1,5-naphthyridine-2,7-dicarbonitrile]
13 | 6.00 to 7.00 | 6.00 to 7.00 | Cn1c(=O)cc(N(C)[C@H]2CC[C@@H](N(CC3COCCO3)c3ccc4c(c3)OCCO4)CC2)c2nc(C#N)ccc21 (stereo partly drawn) [Example 183, cis-8-((4-(((1,4-dioxan-2-yl)methyl)(2,3-dihydrobenzo[b][1,4]dioxin-6-yl)amino)cyclohexyl) (methyl)amino)-5-methyl-6-oxo-5,6-dihydro-1,5-naphthyridine-2-carbonitrile]
14 | 7.00 to 8.00 | 6.00 to 7.00 | Cc1cc(F)ccc1N(CC1CC(F)(F)C1)[C@H]1CC[C@@H](N(C)c2cc(=O)n(C)c3ccc(C#N)nc23)CC1 [Example 184, cis-8-((-4-(((3,3-difluorocyclobutyl)methyl)(4-fluoro-2-methylphenyl)amino)cyclohexyl)(methyl)amino)-5-methyl-6-oxo-5,6-dihydro-1,5-naphthyridine-2-carbonitrile]
15 | 6.00 to 7.00 | 6.00 to 7.00 | Cc1cc(F)ccc1N(CC1COCCN1C)[C@H]1CC[C@H](N(C)c2c(C#N)c(=O)n(C)c3ccc(C#N)nc23)CC1 (stereo partly drawn) [Example 185, trans-8-((-4-((4-fluoro-2-methylphenyl)((4-methylmorpholin-3-yl)methyl)amino)cyclohexyl) (methyl)amino)-5-methyl-6-oxo-5,6-dihydro-1,5-naphthyridine-2,7-dicarbonitrile]
16 | ≤ 6.00 | 6.00 to 7.00 | Cc1cc(F)ccc1N(CC1CN(C)CCO1)[C@H]1CC[C@H](N(C)c2c(C#N)c(=O)n(C)c3ccc(C#N)nc23)CC1 (stereo partly drawn) [Example 186, trans-8-((-4-((4-fluoro-2-methylphenyl)((4-methylmorpholinium-2-yl)methyl)amino)cyclohexyl) (methyl)amino)-5-methyl-6-oxo-5,6-dihydro-1,5-naphthyridine-2,7-dicarbonitrile trifluoroacetate]
17 | 6.00 to 7.00 | 6.00 to 7.00 | CN1C(=O)COc2ccc(N(CC3COCCO3)[C@H]3CC[C@@H](N(C)c4c(C#N)c(=O)n(C)c5ccc(C#N)nc45)CC3)cc21 (stereo partly drawn) [Example 187, cis-8-((4-(((1,4-dioxan-2-yl)methyl)(4-methyl-3-oxo-3,4-dihydro-2H-benzo[b][1,4]oxazin-6-yl)amino)cyclohexyl)(methyl)amino)-5-methyl-6-oxo-5,6-dihydro-1,5-naphthyridine-2,7-dicarbonitrile]
18 | 6.00 to 7.00 | 6.00 to 7.00 | Cn1c(=O)cc(N(C)[C@H]2CC[C@@H](N(CC3COCCO3)c3ccc(F)c(OC(F)F)c3)CC2)c2nc(C#N)ccc21 (stereo partly drawn) [Example 188, cis-8-((-4-(((1,4-dioxan-2-yl)methyl)(3-(difluoromethoxy)-4-fluorophenyl)amino)cyclohexyl) (methyl)amino)-5-methyl-6-oxo-5,6-dihydro-1,5-naphthyridine-2-carbonitrile]
19 | 6.00 to 7.00 | 7.00 to 8.00 | Cn1c(=O)cc(N(C)[C@H]2CC[C@@H](N(CC3CC3)c3ccc4c(c3)COC4)CC2)c2nc(C#N)ccc21 [Example 192, cis-8-((4-((cyclopropylmethyl)(1,3-dihydroisobenzofuran-5-yl)amino)cyclohexyl) (methyl)amino)-5-methyl-6-oxo-5,6-dihydro-1,5-naphthyridine-2-carbonitrile]
20 | ≤ 6.00 | ≤ 6.00 | Cn1c(=O)c(C#N)c(N(C)[C@H]2CC[C@@H](N(CC3CC3)c3ccc4c(c3)COC4)CC2)c2nc(C#N)ccc21 [Example 193, cis-8-((4-((cyclopropylmethyl)(1,3-dihydroisobenzofuran-5-yl)amino)cyclohexyl) (methyl)amino)-5-methyl-6-oxo-5,6-dihydro-1,5-naphthyridine-2,7-dicarbonitrile]
21 | ≤ 6.00 | 6.00 to 7.00 | Cn1c(=O)cc(N(C)[C@H]2CC[C@@H](N(CC(C)(C)CO)c3ccc(F)cc3)CC2)c2nc(C#N)ccc21 [Example 194, cis-8-((-4-((4-fluorophenyl)(3-hydroxy-2,2-dimethylpropyl)amino)cyclohexyl)(methyl)amino)-5-methyl-6-oxo-5,6-dihydro-1,5-naphthyridine-2-carbonitrile]
22 | ≤ 6.00 | 6.00 to 7.00 | CN1C(=O)COc2ccc(N(CC3CC3)[C@H]3CC[C@@H](N(C)c4cc(=O)n(C)c5ccc(C#N)nc45)CC3)cc21 [Example 197, cis-8-((4-((cyclopropylmethyl)(4-methyl-3-oxo-3,4-dihydro-2H-benzo[b][1,4]oxazin-6-yl)amino)cyclohexyl)(methyl)amino)-5-methyl-6-oxo-5,6-dihydro-1,5-naphthyridine-2-carbonitrile]
